Assay results reported in patent US20050239656A1, “Pyridine compounds or salts thereof and herbicides containing the same” (priority 2002, published 2005).

Assays:
soybean [1] = assay: Test Example 2: soil surface treatment, upland pot test; type: in vivo, Glycine max Merr.; conditions: active ingredient 1000 g/ha, observed 20th to 28th day
In short: (§1)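 Soil surface treated 1 day post-sowing. Formulation: WP or EC, predetermined a.i., diluted to 1,500 L/ha. Pot size 1/170,000 ha, upland soil. Readout: visual % control, 0 = non-treated, 100 = dead, days 20–28.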

velvetleaf [2] = assay: Test Example 1: foliage treatment, upland pot test; type: in vivo, Abutilon theophrasti MEDIC.; conditions: observed 18th to 23rd day, 0 = non-treated, 100 = complete kill
green foxtail [3] = assay: Test Example 2: soil surface treatment, upland pot test; type: in vivo, Setaria viridis L.; conditions: active ingredient 1000 g/ha, observed 20th to 28th day
In short: as §1

prickly sida [4] = assay: Test Example 1: foliage treatment, upland pot test; type: in vivo, Sida spinosa L.; conditions: observed 18th to 23rd day, 0 = non-treated, 100 = complete kill
rice [5] = assay: Test Example 1: foliage treatment, upland pot test; type: in vivo, Oryza sativa L.; conditions: crop, observed 18th to 23rd day, 0 = non-treated, 100 = complete kill
In short: (§2)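 Visual growth-control scores (0 = untreated, 100 = complete kill) were taken 18–23 days after foliar spraying of a wettable powder or emulsifiable concentrate, diluted in 500 L/ha water with 0.1% (v/v) spreader. Treatment leaf stages: barnyardgrass 1.3–2.8, rice 1.2–2.6, wheat 1.3–2.4, soybean 0.1–0.4.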

crabgrass [6] = assay: Test Example 1: foliage treatment, upland pot test; type: in vivo, Digitaria sanguinalis L.; conditions: observed 18th to 23rd day, 0 = non-treated, 100 = complete kill
crabgrass [7] = assay: Test Example 2: soil surface treatment, upland pot test; type: in vivo, Digitaria sanguinalis L.; conditions: active ingredient 1000 g/ha, observed 20th to 28th day
In short: as §1

barnyardgrass [8] = assay: Test Example 3: paddy pot test, application under submerged conditions; type: in vivo, Echinochloa crus-galli L.; conditions: submerged application at 0.5 leaf stage, visually observed 14 days after application, 0 = non-treated, 100 = complete kill
In short: (§3)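 Paddy soil pots; seeds sown, lightly covered; flooded 0.5–1 cm in greenhouse; wapato tubers planted day 1–2; flood raised to 3–4 cm. Submerged pipette application at 0.5 leaf / primary leaf stage. Visual score day 14, 0–100%.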

corn [9] = assay: Test Example 2: soil surface treatment, upland pot test; type: in vivo, Zea mays L.; conditions: active ingredient 1000 g/ha, observed 20th to 28th day
In short: as §1

redroot pigweed [10] = assay: Test Example 1: foliage treatment, upland pot test; type: in vivo, Amaranthus retroflexus L.; conditions: observed 18th to 23rd day, 0 = non-treated, 100 = complete kill
prickly sida [11] = assay: Test Example 2: soil surface treatment, upland pot test; type: in vivo, Sida spinosa L.; conditions: active ingredient 1000 g/ha, observed 20th to 28th day
In short: as §1

japanese bulrush = assay: Test Example 3: paddy pot test, application under submerged conditions; type: in vivo, Scirpus juncoides; conditions: submerged application at 0.5 leaf stage, visually observed 14 days after application, 0 = non-treated, 100 = complete kill
In short: as §3

corn [12] = assay: Test Example 1: foliage treatment, upland pot test; type: in vivo, Zea mays L.; conditions: crop, observed 18th to 23rd day, 0 = non-treated, 100 = complete kill
In short: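 Corn seeds were sown in upland field soil held in a 1/170,000 ha pot and grown to the 2.1 to 3.2 leaf stage. A wettable powder or emulsifiable concentrate of the test compound was diluted with water at 500 L/ha, given 0.1% (v/v) agricultural spreader, and sprayed onto the foliage with a small sprayer. Growth controlling degree (%) was scored visually 18th to 23rd days later, from 0 (non-treated) to 100 (complete kill).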

rice (var. Nihonbare) = assay: Test Example 3: paddy pot test, transplanted rice; type: in vivo, Oryza sativa L.; conditions: applied 4th day after transplantation, visually observed 21st day after application, 0 = non-treated, 100 = complete kill
In short: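 Visual crop-injury rating (0 = as untreated, 100 = complete kill, %) taken 21 days post-application. Treatment: formulated compound, water-diluted, pipetted into 3–4 cm flood water at a preset active-ingredient dose, 4 days after transplanting 2-leaf Nihonbare rice 3 cm deep in puddled paddy soil.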

green foxtail [13] = assay: Test Example 1: foliage treatment, upland pot test; type: in vivo, Setaria viridis L.; conditions: observed 18th to 23rd day, 0 = non-treated, 100 = complete kill
wheat [14] = assay: Test Example 1: foliage treatment, upland pot test; type: in vivo, Triticum spp.; conditions: crop, active ingredient 1000 g/ha, observed 18th to 23rd day, 0 = non-treated, 100 = complete kill
In short: as §2

barnyardgrass [15] = assay: Test Example 2: soil surface treatment, upland pot test; type: in vivo, Echinochloa crus-galli L.; conditions: active ingredient 1000 g/ha, observed 20th to 28th day, 0 = non-treated, 100 = complete kill
In short: as §1

soybean [16] = assay: Test Example 1: foliage treatment, upland pot test; type: in vivo, Glycine max Merr.; conditions: crop, observed 18th to 23rd day, 0 = non-treated, 100 = complete kill
In short: as §2

redroot pigweed [17] = assay: Test Example 2: soil surface treatment, upland pot test; type: in vivo, Amaranthus retroflexus L.; conditions: active ingredient 1000 g/ha, observed 20th to 28th day
In short: as §1

rice [18] = assay: as above; type: in vivo, Oryza sativa L.; conditions: active ingredient 1000 g/ha, observed 20th to 28th day
In short: as §1

tall morningglory = assay: Test Example 1: foliage treatment, upland pot test; type: in vivo, Ipomoea purpurea L.; conditions: observed 18th to 23rd day, 0 = non-treated, 100 = complete kill
Source text: Upland field soil was put into a 1/170,000 ha pot, and seed of various plants were sown. Then, when the plants reached predetermined leaf stages ((1) barnyardgrass: 1.3 to 2.8 leaf stages, (2) crabgrass: 1.0 to 2.8 leaf stages, (3) green foxtail: 1.3 to 2.6 leaf stages, (4) redroot pigweed: 0.1 to 1.2 leaf stages, (5) prickly sida: 0.1 to 1.2 leaf stages, (6) velvetleaf: 0.1 to 1.2 leaf stages, (7) tall morningglory: 0.1 to 1.5 leaf stages, (8) rice: 1.2 to 2.6 leaf stages, (9) wheat: 1.3 to 2.4 leaf stages, (10) corn, 2.1 to 3.2 leaf stages, (11) soybean: 0.1 to 0.4 leaf stage), a wettable powder or emulsifiable concentrate having the compound of the present invention formulated in accordance with a usual formulation method, was weighed so that the active ingredient would be a predetermined amount, and diluted with water in an amount of 500 L/ha. To the diluted solution, 0.1% (v/v) of agricultural spreader was added. The herbicide thus adjusted was applied by a small size sprayer for foliage treatment. On the 18th to 23rd days after the application of the herbicide, the growth of the respective plants was visually observed, and the herbicidal effects were evaluated by the growth controlling degrees (%) ranging from 0 (equivalent to the non-treated plot) to 100 (complete kill), whereby the results shown in Table 3, were obtained.

wheat [19] = assay: Test Example 2: soil surface treatment, upland pot test; type: in vivo, Triticum spp.; conditions: active ingredient 1000 g/ha, observed 20th to 28th day
In short: as §1

velvetleaf [20] = assay: as above; type: in vivo, Abutilon theophrasti MEDIC.; conditions: active ingredient 1000 g/ha, observed 20th to 28th day
In short: as §1

japanese ribbon wapato = assay: Test Example 3: paddy pot test, application under submerged conditions; type: in vivo, Sagittaria pygniaea; conditions: submerged application at primary leaf stage, visually observed 14 days after application, 0 = non-treated, 100 = complete kill
In short: as §3

barnyardgrass [21] = assay: Test Example 1: foliage treatment, upland pot test; type: in vivo, Echinochloa crus-galli L.; conditions: observed 18th to 23rd day, 0 = non-treated, 100 = complete kill
In short: as §2

Row | Compound | Growth controlling degree (%) Soyabean (soybean [1]) | Growth controlling degree (%) Velvetleaf (velvetleaf [2]; active ingredient 1000 g/ha) | Growth controlling degree (%) Green foxtail (green foxtail [3]) | Growth controlling degree (%) Prickly sida (prickly sida [4]; active ingredient 1000 g/ha) | Growth controlling degree (%) Rice (rice [5]; active ingredient 1000 g/ha) | Growth controlling degree (%) Crabgrass (crabgrass [6]; active ingredient 1000 g/ha) | Growth controlling degree (%) Crabgrass (crabgrass [7]) | Growth controlling degree (%) Corn (corn [9]) | Growth controlling degree (%) Redroot pigweed (redroot pigweed [10]; active ingredient 1000 g/ha) | Growth controlling degree (%) Prickly sida (prickly sida [11]) | Growth controlling degree (%) Corn (corn [12]; active ingredient 1000 g/ha) | Growth controlling degree (%) Green foxtail (green foxtail [13]; active ingredient 1000 g/ha) | Growth controlling degree (%) wheat (wheat [14]) | Growth controlling degree (%) Barnyardgrass (barnyardgrass [15]) | Growth controlling degree (%) Soybean (soybean [16]; active ingredient 1000 g/ha) | Growth controlling degree (%) Redroot pigweed (redroot pigweed [17]) | Growth controlling degree (%) Rice (rice [18]) | Growth controlling degree (%) Tall morningglory (tall morningglory; active ingredient 1000 g/ha) | Growth controlling degree (%) wheat (wheat [19]) | Growth controlling degree (%) Velvetleaf (velvetleaf [20]) | also measured
1 | CC(C)C(c1cnccc1C(F)(F)F)N(C)C(=O)Cc1ccc(I)cc1 (stereo not drawn) [I-2] | 0% | 90% | 80% | 90% | 20% | 90% | 90% | 0% | 70% | 70% | 20% | 70% | 20% | 80% | 90% | 70% | 0% | 90% | 0% | 0% | Growth controlling degree (%) Barnyardgrass (barnyardgrass [8]; active ingredient 250 g/ha): 100%; Growth controlling degree (%) Japanese bulrush (japanese bulrush; active ingredient 250 g/ha): 90%; Growth controlling degree (%) Rice (rice (var. Nihonbare); active ingredient 250 g/ha): 20%; Growth controlling degree (%) Japanese ribbon wapato (japanese ribbon wapato; active ingredient 250 g/ha): 50%; Growth controlling degree (%) Barnyardgrass (barnyardgrass [21]; active ingredient 1000 g/ha): 90%
2 | CC(C)C(c1cnccc1C(F)(F)F)N(C)C(=O)Cc1c(F)cccc1F (stereo not drawn) [I-13] | 20% |  | 100% |  |  |  | 100% | 40% |  | 90% |  |  |  | 100% |  | 90% | 30% |  | 98% | 100% | Growth controlling degree (%) Velvetleaf (velvetleaf [2]; active ingredient 500 g/ha): 80%; Growth controlling degree (%) Prickly sida (prickly sida [4]; active ingredient 500 g/ha): 70%; Growth controlling degree (%) Rice (rice [5]; active ingredient 500 g/ha): 20%; Growth controlling degree (%) Crabgrass (crabgrass [6]; active ingredient 500 g/ha): 80%; Growth controlling degree (%) Barnyardgrass (barnyardgrass [8]; active ingredient 500 g/ha): 100%; Growth controlling degree (%) Redroot pigweed (redroot pigweed [10]; active ingredient 500 g/ha): 80%; Growth controlling degree (%) Japanese bulrush (japanese bulrush; active ingredient 500 g/ha): 95%; Growth controlling degree (%) Corn (corn [12]; active ingredient 500 g/ha): 70%; Growth controlling degree (%) Rice (rice (var. Nihonbare); active ingredient 500 g/ha): 30%; Growth controlling degree (%) Green foxtail (green foxtail [13]; active ingredient 500 g/ha): 80%; Growth controlling degree (%) Soybean (soybean [16]; active ingredient 500 g/ha): 90%; Growth controlling degree (%) Tall morningglory (tall morningglory; active ingredient 500 g/ha): 95%; Growth controlling degree (%) Japanese ribbon wapato (japanese ribbon wapato; active ingredient 500 g/ha): 90%; Growth controlling degree (%) Barnyardgrass (barnyardgrass [21]; active ingredient 500 g/ha): 80%
3 | CC(C)C(c1cnccc1C(F)(F)F)N(C)C(=O)Cc1ccc(Cl)cc1Cl (stereo not drawn) [I-14] | 0% |  | 100% |  |  |  | 100% | 20% |  | 60% |  |  |  | 100% |  | 85% | 10% |  | 30% | 60% | Growth controlling degree (%) Velvetleaf (velvetleaf [2]; active ingredient 500 g/ha): 70%; Growth controlling degree (%) Prickly sida (prickly sida [4]; active ingredient 500 g/ha): 80%; Growth controlling degree (%) Rice (rice [5]; active ingredient 500 g/ha): 20%; Growth controlling degree (%) Crabgrass (crabgrass [6]; active ingredient 500 g/ha): 70%; Growth controlling degree (%) Barnyardgrass (barnyardgrass [8]; active ingredient 500 g/ha): 100%; Growth controlling degree (%) Redroot pigweed (redroot pigweed [10]; active ingredient 500 g/ha): 80%; Growth controlling degree (%) Japanese bulrush (japanese bulrush; active ingredient 500 g/ha): 98%; Growth controlling degree (%) Corn (corn [12]; active ingredient 500 g/ha): 40%; Growth controlling degree (%) Rice (rice (var. Nihonbare); active ingredient 500 g/ha): 10%; Growth controlling degree (%) Green foxtail (green foxtail [13]; active ingredient 500 g/ha): 60%; Growth controlling degree (%) Soybean (soybean [16]; active ingredient 500 g/ha): 20%; Growth controlling degree (%) Tall morningglory (tall morningglory; active ingredient 500 g/ha): 95%; Growth controlling degree (%) Japanese ribbon wapato (japanese ribbon wapato; active ingredient 500 g/ha): 30%; Growth controlling degree (%) Barnyardgrass (barnyardgrass [21]; active ingredient 500 g/ha): 50%
4 | CC(C)COC(=O)N(C)C(c1cnccc1C(F)(F)F)c1cccc2ccccc12 (stereo not drawn) [I-52] |  | 95% |  | 70% | 10% | 80% |  |  | 60% |  | 60% | 20% | 10% |  | 0% |  |  | 95% |  |  | Growth controlling degree (%) Barnyardgrass (barnyardgrass [21]; active ingredient 1000 g/ha): 50%
